Laboratory results: patent US20250302816A1, “DISRUPTION OF EPITHELIAL BARRIERS FOR MOLECULAR DELIVERY ENHANCEMENT OR EXTRACTION OF EXTRACELLULAR FLUIDS” (The University of Nottingham, priority 2022, published 2025)

Columns and labels:
[1] = system: diabetic rat model with increased retinal permeability; test: Topical eye administration in diabetic rat model with increased vascular permeability; format: in vivo, Norway Brown rats; conditions: topical co-application vs Bevacizumab alone
Calu-3 cell layers = test: FD4 permeability and TEER of polarised Calu-3 cell layers; format: cell-based, human

## CCCCCCCCCC(=O)CC(=O)N[C@H]1CCOC1=O [Agent 3OC12-HSL, N-(3-oxododecanoyl) homoserine lactone]
[1]
  delivery of Bevacizumab into the posterior chamber of rat eyes (confocal images): significantly enhance
Calu-3 cell layers; 200 μM (3OC12-HSL: 200 μM or 1 μM)
  paracellular passage / flux of FD4 from apical to basolateral chamber: increased paracellular passage of FD4
Calu-3 cell layers; 200 μM or 1 μM in 0.15% DMSO in HBSS, p<0.001
  effect on TEER compared to vehicle only: reduced TEER significantly
Calu-3 cell layers; during exposure
  time after which TEER started increasing / cell layer integrity began to recover: 4 h
Calu-3 cell layers; recovery during exposure
  TEER after 7 hours: 520+/−20 Ω·cm^2
Calu-3 cell layers; then continued increasing slowly for four hours
  time at which flux of FD4 peaked: 30 min
